Data as given in patent US5210089A, “D-rhamnono-1,5-lactone” (Monsanto Company, priority 1992, dated 1993).
Entries after “also recorded” stand apart in the source; their conditions may differ.

How the values were obtained:
Lysosomal α-fucosidase = target: T1, Lysosomal α-fucosidase (Homo sapiens, UniProt P04066); assay: Human liver glycosidase assay, lysosomal α-fucosidase; assay type: biochemical; conditions: for inhibition at 1000 µM: 1 mM compound, human liver, read-out: Inhibition (%) at 1 mM, lysosomal α-fucosidase
T1 construct: human liver extracts; from tissue; host or cells: human liver extracts
T1 sequence (P04066 32-466): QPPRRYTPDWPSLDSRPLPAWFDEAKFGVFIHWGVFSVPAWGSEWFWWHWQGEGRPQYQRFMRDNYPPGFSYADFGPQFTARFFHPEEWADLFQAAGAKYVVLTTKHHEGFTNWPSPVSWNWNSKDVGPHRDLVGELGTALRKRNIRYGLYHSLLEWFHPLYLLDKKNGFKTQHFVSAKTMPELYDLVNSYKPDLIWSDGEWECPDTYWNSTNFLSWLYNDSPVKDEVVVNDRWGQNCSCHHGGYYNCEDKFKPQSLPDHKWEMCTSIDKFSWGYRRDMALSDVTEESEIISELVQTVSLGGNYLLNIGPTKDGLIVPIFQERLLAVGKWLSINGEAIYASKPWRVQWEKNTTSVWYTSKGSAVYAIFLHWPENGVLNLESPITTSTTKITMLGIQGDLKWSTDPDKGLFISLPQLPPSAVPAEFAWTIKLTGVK
Experimental: (§1) Melting points were recorded on a Kofler hot block. Proton nuclear magnetic resonance (δH) spectra were recorded on Varian Gemini 200 (at 200 MHz), Bruker WH 300 (300 MHz), or Bruker AM 500 (500 MHz) spectrometers. Carbon nuclear magnetic resonance (δC) spectra were recorded on a Varian Gemini 200 (50 MHz) or a Bruker 250 (62.9 MHz) spectrometer. Multiplicities were assigned using DEPT sequence on the Gemini and by off resonance decoupling on the Bruker. Spectra run in D2 O were referenced to methanol as an internal standard. All chemical shifts are quoted on the δ-scale. Infrared spectra were recorded on a Perkin-Elmer 297, or on a Perkin-Elmer 781 spectrophotometer. Mass spectra were recorded on VG Micromass 30F, ZAB lF, Masslab 20-250 or Trio-1 GCMS (DB-5 column) spectrometers using desorption chemical ionization (NH3 DCI), electron impact (EI), chemical ionization (NH3 CI) and fast atom bombardment (FAB) techniques, as stated. […] Concentrations were given in g/100 ml. Hydrogenations were run under an atmosphere of hydrogen gas maintained by inflated balloon. Microanalyses were performed by the microanalysis service of the DysonPerrins laboratory, Oxford UK. Thin layer chromatography (t.l.c.) was carried out on aluminum sheets coated with 60F254 silica. Plates were developed using either 5% v/v concentrated sulphuric acid in methanol, 0.2% w/v cerium (IV) sulphate and 5% ammonium molybdate in 2M sulphuric acid and 0.5% ninhydrin in methanol. Flash chromatography was carried out using Sorbsil C60 40/60 silica. Ion-exchange chromatography was performed using Dowex 50W-X8 (H) and Sigma CG 400 (Cl) resins. The resins were washed with 2M hydrochloric acid and 2M sodium hydroxide solution, respectively, and subsequently with distilled water, prior to use. Solvents and commercially available reagents were dried and purified before use according to standard procedures; dichloromethane was refluxed over and distilled from calcium hydride, N,N-dimethylformamide was distilled under reduced pressure from calcium hydride, methanol was distilled from magnesium methoxide, pyridine was distilled from, and stored over, potassium hydroxide and tetrahydrofuran was distilled from a purple solution of sodium benzophenone ketyl immediately before use. Hexane was distilled at 68° C. before use to remove involatile fractions. 2,3-O-Isopropylidene-L-gulono-1,4-lactone (9) [H. Ogura et al., J. Oro. Chem. 37, 72 (1972); G. W. J. Fleet Tetrahedron 45, 319 (1989)]and 2,3-O-isopropylidene-D-gulono-1,4-lactone (15) [L. M. Lerner et al., J. Org. Chem. 33, 1780 (1968)]were prepared from D- and L-Chem. gulonolactones [purchased from the Sigma Chemical Company] as reported previously. See, e.g., Fleet, U.S. Pat. No. 4,861,892. Human liver glycosidases were assayed in the absence and presence [1 mM] of each of the compounds using the appropriate buffered 4-methylumbellifeeryl-glycosides as substrates, as described previously. [B. Winchest et al., Biochem. J. 265, 277 (1990)]. Naringinase was assayed using pnitrophenyl α-L-rhamnoside (1.75 mM) as substrates, according to Romero [C. Romero et al., Anal. Biochem. 149, 566 (1985)].
(§2) The enzymes included human liver glycosidases and naringinase. The latter enzyme is a readily available endo-L-rhamnosidase described by Romero et al., Anal. Biochem. 149, 566 (1985).

Lysosomal α-mannosidase = target: T2, Lysosomal α-mannosidase (Homo sapiens, UniProt O00754); assay: Human liver glycosidase assay, lysosomal α-mannosidase; assay type: biochemical; design: human liver extracts; from tissue; host or cells: human liver extracts; conditions: for inhibition at 1000 µM: 1 mM compound, 4-methylumbelliferyl-glycoside substrate; for inhibition at 1000 µM / IC50: human liver; for IC50: read-out: I50, lysosomal α-mannosidase
T2 sequence (O00754 50-1011): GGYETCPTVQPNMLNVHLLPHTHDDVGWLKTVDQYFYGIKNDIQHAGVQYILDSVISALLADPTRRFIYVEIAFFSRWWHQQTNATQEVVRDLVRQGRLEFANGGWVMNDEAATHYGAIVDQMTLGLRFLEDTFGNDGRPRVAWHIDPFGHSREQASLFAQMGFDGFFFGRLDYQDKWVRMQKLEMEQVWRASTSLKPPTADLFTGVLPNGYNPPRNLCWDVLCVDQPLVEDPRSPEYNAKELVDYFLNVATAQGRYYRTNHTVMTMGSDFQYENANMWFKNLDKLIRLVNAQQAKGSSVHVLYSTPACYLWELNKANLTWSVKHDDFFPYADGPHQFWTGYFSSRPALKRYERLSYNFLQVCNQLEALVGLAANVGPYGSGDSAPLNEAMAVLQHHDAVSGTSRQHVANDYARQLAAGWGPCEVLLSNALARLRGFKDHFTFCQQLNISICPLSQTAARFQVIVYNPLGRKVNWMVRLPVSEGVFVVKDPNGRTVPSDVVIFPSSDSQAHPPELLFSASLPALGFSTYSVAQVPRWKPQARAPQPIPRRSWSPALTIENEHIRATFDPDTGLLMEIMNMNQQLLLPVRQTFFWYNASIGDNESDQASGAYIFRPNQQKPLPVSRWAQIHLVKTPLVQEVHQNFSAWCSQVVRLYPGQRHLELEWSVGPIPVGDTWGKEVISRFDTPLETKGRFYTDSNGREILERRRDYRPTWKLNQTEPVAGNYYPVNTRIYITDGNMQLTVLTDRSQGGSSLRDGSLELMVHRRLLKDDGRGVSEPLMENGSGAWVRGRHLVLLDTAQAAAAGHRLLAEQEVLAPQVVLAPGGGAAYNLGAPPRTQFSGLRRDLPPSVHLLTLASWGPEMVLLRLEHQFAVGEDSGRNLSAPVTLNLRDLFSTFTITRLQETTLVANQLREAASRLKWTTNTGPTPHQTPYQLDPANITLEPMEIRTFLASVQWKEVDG
Experimental: as §1, §2

Structure (SMILES)	Inhibition of α-fucosidase (in words) (Lysosomal α-fucosidase)	inhibition at 1000 µM (Lysosomal α-fucosidase) [%]	inhibition at 1000 µM (Lysosomal α-mannosidase) [%]	IC50 (Lysosomal α-mannosidase) [µM]	Inhibition of α-mannosidase (in words) (Lysosomal α-mannosidase; listed as D-rhamnono-1,5-lactone)
C[C@H]1NC(=O)[C@@H](O)[C@@H](O)[C@@H]1O [D-Rhamno-1,5-lactam (6), 6-Deoxy-D-mannono-δ-lactam]	does not show any significant inhibition	0	86	100	inhibitor of α- and β-mannosidases; also recorded: better inhibitor of α-mannosidase than deoxymannojirimycin (1)
C[C@@H]1NC(=O)[C@H](O)[C@H](O)[C@H]1O [L-Rhamno-1,5-lactam (8), 6-Deoxy-L-mannono-δ-lactam]	–	0	0	–	–
O=C1N[C@H](CO)[C@@H](O)[C@H](O)[C@@H]1O [Mannono-1,5-lactam (2), D-mannonolactam]	–	0	94	50	–
